“Also recorded” adds a separate entry of the source. Read-outs that look alike come from different tables or passages of the source.
Columns and labels:
hTRPC4 = molecular target: T1, hTRPC4 (Homo sapiens, UniProt Q9UBN4); test: Whole-cell manual patch clamp; format: cell-based; settings: 10 µM carbachol /M1R
T1 construct: The cDNAs for various full-length ion channels were subcloned into pcDNA5/TO; expressed in transfected cells; M1R co-expressed in the calcium assay, M2R in patch clamp

CCK1 (CCKA) (h) = CCK1 (CCKA) (h) (Homo sapiens, UniProt P32238); format: binding; settings: 1.0E-06 M
Sequence of CCK1 (CCKA) (h) (P32238 whole entry): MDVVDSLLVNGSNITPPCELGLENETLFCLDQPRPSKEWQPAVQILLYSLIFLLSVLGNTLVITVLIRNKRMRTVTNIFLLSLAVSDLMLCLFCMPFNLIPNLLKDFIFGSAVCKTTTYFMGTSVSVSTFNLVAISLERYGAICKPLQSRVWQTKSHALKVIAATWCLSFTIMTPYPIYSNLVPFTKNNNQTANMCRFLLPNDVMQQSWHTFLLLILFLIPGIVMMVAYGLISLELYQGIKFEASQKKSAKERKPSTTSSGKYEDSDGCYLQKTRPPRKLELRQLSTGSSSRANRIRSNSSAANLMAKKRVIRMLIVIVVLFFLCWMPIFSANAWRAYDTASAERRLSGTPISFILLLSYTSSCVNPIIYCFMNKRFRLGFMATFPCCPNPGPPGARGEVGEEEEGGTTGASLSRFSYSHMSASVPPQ

5-HT2C (h) = molecular target: T2, 5-HT2C (h) (Homo sapiens, UniProt P28335); format: binding; settings: 1.0E-06 M
T2 construct: host or cells: HEK-293 cells
T2 sequence (P28335 33-458): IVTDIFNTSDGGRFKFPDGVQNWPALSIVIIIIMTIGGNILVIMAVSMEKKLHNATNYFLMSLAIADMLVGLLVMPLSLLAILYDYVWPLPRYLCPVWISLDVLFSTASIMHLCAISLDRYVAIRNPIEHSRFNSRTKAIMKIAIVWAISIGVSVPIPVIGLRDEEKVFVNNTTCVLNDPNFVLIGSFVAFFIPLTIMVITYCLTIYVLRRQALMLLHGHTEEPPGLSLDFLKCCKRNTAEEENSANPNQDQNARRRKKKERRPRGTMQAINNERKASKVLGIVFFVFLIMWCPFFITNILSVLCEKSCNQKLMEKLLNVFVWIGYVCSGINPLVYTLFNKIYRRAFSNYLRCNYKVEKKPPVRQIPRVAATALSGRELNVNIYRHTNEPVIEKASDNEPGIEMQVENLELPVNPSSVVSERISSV

β1 (h) = molecular target: T3, β1 (h) (Homo sapiens, UniProt P08588); format: binding; settings: 1.0E-06 M
T3 construct: host or cells: HEK-293 cells
T3 sequence (P08588 whole entry): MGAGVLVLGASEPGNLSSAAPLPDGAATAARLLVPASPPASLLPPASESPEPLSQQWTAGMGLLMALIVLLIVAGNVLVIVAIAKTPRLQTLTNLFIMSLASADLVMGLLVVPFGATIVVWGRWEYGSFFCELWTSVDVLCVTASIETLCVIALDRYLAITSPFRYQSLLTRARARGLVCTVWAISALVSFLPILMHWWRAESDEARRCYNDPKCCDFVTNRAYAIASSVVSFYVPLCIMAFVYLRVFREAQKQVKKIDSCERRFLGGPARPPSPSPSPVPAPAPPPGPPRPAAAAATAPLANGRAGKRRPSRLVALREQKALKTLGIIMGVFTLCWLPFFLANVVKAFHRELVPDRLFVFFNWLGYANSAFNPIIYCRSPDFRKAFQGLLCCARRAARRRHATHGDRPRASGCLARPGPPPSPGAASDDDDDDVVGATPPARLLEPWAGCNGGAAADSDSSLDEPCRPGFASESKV

V2 (h) = molecular target: T4, V2 (h) (Homo sapiens, UniProt P30518); format: binding; settings: 1.0E-06 M
T4 construct: host or cells: CHO cells
T4 sequence (P30518 whole entry): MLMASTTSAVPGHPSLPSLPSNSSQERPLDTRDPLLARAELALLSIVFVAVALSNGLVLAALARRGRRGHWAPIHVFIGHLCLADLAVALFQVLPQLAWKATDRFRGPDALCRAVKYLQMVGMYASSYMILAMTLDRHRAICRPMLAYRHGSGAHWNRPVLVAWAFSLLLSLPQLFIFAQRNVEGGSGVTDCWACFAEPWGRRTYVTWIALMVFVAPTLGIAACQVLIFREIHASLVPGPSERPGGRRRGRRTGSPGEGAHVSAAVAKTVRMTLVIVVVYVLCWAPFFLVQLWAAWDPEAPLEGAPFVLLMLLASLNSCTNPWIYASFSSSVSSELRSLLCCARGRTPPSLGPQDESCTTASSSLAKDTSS

5-HT2B (h) = molecular target: T5, 5-HT2B (h) (Homo sapiens, UniProt P41595); format: binding; settings: 1.0E-06 M
T5 construct: host or cells: CHO cells
T5 sequence (P41595 whole entry): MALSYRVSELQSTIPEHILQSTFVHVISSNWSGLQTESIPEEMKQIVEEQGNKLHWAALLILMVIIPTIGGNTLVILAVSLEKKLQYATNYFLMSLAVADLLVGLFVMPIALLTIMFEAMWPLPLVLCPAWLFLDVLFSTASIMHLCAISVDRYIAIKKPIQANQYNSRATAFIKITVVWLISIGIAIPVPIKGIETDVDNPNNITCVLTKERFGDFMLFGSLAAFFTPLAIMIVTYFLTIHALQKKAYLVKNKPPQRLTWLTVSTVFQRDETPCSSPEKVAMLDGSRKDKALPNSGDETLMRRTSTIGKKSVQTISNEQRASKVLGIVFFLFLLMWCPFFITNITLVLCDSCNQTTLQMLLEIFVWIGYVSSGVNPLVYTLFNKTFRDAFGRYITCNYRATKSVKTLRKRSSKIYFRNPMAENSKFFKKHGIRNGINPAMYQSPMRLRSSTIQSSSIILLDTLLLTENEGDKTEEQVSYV

V1a (h) = molecular target: T6, V1a (h) (Homo sapiens, UniProt P37288); format: binding; settings: 1.0E-06 M
T6 construct: host or cells: CHO cells
T6 sequence (P37288 whole entry): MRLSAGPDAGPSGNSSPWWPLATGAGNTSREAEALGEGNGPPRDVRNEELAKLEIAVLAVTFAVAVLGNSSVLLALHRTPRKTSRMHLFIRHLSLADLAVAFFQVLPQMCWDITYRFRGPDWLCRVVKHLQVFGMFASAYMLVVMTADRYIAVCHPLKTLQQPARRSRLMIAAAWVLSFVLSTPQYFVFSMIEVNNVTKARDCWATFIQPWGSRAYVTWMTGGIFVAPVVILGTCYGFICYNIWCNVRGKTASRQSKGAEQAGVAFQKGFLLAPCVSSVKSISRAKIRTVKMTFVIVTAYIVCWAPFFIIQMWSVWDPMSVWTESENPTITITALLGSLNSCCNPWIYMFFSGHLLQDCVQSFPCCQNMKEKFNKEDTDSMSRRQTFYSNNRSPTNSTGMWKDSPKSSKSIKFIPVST

α2A (h) = molecular target: T7, α2A (h) (Homo sapiens, UniProt P08913); format: binding; settings: 1.0E-06 M
T7 construct: host or cells: CHO cells
T7 sequence (P08913 1-465): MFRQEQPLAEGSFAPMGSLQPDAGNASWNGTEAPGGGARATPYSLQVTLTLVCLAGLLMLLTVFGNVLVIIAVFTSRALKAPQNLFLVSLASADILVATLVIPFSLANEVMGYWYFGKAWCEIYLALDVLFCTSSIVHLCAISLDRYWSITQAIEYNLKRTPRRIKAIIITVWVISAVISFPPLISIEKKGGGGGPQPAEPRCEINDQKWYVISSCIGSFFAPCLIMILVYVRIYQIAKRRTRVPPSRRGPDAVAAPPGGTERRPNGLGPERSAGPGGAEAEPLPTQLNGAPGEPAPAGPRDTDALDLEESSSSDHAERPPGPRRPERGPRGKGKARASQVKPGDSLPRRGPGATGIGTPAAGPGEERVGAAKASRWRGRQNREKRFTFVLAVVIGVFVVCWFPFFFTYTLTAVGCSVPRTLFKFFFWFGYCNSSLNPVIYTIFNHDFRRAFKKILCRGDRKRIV

human TRPC4 (hTRPC4) = molecular target: T8, human TRPC4 (hTRPC4) (Homo sapiens, UniProt Q9UBN4); test: Fluorometric calcium influx assay; format: cell-based; settings: 1 pM to 1 μM, n = 8
T8 construct: The cDNAs for various full-length ion channels were subcloned into pcDNA5/TO; expressed in transfected cells; M1R co-expressed in the calcium assay, M2R in patch clamp
T8 sequence (Q9UBN4 1-893 isoform Q9UBN4-2): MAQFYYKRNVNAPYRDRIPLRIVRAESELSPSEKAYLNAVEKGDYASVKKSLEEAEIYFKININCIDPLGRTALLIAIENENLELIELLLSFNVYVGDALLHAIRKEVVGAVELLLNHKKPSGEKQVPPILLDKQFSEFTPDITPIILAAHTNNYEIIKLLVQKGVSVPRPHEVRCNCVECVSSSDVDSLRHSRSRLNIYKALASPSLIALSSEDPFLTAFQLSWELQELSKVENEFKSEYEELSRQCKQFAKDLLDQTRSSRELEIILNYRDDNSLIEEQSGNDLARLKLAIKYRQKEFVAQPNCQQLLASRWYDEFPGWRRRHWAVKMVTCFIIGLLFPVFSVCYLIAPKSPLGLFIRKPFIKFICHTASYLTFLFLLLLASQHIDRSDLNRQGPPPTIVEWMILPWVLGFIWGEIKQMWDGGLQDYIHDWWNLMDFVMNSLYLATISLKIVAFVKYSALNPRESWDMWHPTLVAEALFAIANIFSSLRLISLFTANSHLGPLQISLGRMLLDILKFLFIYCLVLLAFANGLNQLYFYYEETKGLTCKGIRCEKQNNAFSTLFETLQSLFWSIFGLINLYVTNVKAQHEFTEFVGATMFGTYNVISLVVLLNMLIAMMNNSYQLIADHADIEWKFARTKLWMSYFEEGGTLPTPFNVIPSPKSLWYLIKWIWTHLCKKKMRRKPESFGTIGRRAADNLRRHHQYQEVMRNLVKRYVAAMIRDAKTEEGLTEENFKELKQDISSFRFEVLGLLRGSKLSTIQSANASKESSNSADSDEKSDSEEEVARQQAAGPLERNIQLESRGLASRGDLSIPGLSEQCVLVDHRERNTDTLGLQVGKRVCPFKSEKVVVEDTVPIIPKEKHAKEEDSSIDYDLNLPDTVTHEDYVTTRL

A1 (h) = molecular target: T9, A1 (h) (Homo sapiens, UniProt P30542); format: binding
T9 sequence (P30542 1-326): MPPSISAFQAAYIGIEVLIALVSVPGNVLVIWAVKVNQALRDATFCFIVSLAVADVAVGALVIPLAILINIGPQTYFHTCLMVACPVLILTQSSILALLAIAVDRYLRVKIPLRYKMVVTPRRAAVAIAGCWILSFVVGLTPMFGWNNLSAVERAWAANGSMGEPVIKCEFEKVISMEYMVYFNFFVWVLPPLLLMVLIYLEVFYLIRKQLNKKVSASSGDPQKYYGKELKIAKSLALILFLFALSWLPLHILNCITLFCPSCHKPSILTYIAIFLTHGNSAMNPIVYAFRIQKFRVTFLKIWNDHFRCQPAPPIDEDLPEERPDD

5-HT1D = 5-HT1D (Rattus norvegicus, UniProt P28565); test: biochemical
Sequence of 5-HT1D (P28565 whole entry): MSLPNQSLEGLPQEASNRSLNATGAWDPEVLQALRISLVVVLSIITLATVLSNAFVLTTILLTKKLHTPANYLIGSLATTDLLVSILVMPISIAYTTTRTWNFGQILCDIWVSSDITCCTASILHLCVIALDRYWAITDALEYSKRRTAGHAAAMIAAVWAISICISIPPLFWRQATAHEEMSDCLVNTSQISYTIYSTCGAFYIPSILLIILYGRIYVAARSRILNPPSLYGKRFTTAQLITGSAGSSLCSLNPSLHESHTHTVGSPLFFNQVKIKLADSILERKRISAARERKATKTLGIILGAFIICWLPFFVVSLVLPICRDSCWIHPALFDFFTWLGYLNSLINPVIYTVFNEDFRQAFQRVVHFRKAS

CD-1 mice = test: Forced swim test
α1A (h) = molecular target: T10, α1A (h) (Homo sapiens, UniProt P35348); format: binding; settings: 1 h, 1.0E-06 M
T10 construct: expressed in transfected cells; host or cells: CHO cells
T10 sequence (P35348 1-466): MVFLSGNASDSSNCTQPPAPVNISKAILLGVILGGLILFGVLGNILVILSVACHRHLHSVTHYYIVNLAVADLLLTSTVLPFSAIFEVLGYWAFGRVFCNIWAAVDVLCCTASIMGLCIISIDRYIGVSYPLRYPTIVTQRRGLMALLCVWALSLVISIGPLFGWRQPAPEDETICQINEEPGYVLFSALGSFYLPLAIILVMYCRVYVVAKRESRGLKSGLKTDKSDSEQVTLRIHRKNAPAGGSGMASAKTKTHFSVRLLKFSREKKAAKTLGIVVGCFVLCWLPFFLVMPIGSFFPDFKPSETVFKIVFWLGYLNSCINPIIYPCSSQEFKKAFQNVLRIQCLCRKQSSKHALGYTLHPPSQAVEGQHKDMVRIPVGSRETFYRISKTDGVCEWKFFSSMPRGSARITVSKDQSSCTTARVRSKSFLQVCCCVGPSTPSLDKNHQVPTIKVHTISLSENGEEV

T1 sequence (Q9UBN4 1-893 isoform Q9UBN4-2): as the sequence (Q9UBN4 1-893 isoform Q9UBN4-2) above

Molecule `Cn1c(=O)n(CCCO)c(=O)c2c1nc(Oc1cccc(OC(F)(F)F)c1)n2Cc1ccc(Cl)cc1` [HC-608] has an IC50 (hTRPC4) of roughly 0.17 nM, an inhibition at 1 µM (CCK1 (CCKA) (h); read-out: % Inhibition 1st) of -11.2% and an inhibition at 1 µM (CCK1 (CCKA) (h); read-out: % Inhibition 2nd) of -0.4%. For the same molecule, the inhibition at 1 µM (CCK1 (CCKA) (h); read-out: % Inhibition Mean) was -5.8%, the inhibition at 1 µM (5-HT2C (h); read-out: % Inhibition 1st) was 12.1% and the inhibition at 1 µM (5-HT2C (h); read-out: % Inhibition 2nd) was 12.6%. The inhibition at 1 µM (5-HT2C (h); read-out: % Inhibition Mean) was 12.3%, the inhibition at 1 µM (β1 (h); read-out: % Inhibition 1st) was -14.5% and the inhibition at 1 µM (β1 (h); read-out: % Inhibition 2nd) was -1.8%. The inhibition at 1 µM (β1 (h); read-out: % Inhibition Mean) was -8.1%, the inhibition at 1 µM (V2 (h); read-out: % Inhibition 1st) was 8.6% and the inhibition at 1 µM (V2 (h); read-out: % Inhibition 2nd) was 5.7%. The inhibition at 1 µM (V2 (h); read-out: % Inhibition Mean) was 7.1%, the inhibition at 1 µM (5-HT2B (h); read-out: % Inhibition 1st) was 15.9% and the inhibition at 1 µM (5-HT2B (h); read-out: % Inhibition 2nd) was 15.8%. The inhibition at 1 µM (5-HT2B (h); read-out: % Inhibition Mean) was 15.9%, the inhibition at 1 µM (V1a (h); read-out: % Inhibition 1st) was -9.9% and the inhibition at 1 µM (V1a (h); read-out: % Inhibition 2nd) was 12.5%. It also gave an inhibition at 1 µM (V1a (h); read-out: % Inhibition Mean) of 1.3%, an inhibition at 1 µM (α2A (h); read-out: % Inhibition 1st) of -14.9% and an inhibition at 1 µM (α2A (h); read-out: % Inhibition 2nd) of -3.7%. It also gave an inhibition at 1 µM (α2A (h); read-out: % Inhibition Mean) of -9.3%, an IC50 (human TRPC4 (hTRPC4)) of 32.5 ± 1.8 nM and an inhibition at 1 µM (A1 (h); 1.0E-06 M, read-out: % Inhibition 1st) of 22.5%. The inhibition at 1 µM (A1 (h); 1.0E-06 M, read-out: % Inhibition Mean) was 17.4%, the inhibition at 1 µM (A1 (h); read-out: % Inhibition 2nd) was 12.3% and the inhibition at 1 µM (5-HT1D; read-out: % Inhibition 1st) was -4.2%. It also gave an inhibition at 1 µM (5-HT1D; read-out: % Inhibition 2nd) of -8.8% and an inhibition at 1 µM (5-HT1D; read-out: % Inhibition Mean) of -6.5%.

`Cn1c(=O)n(CCCO)c(=O)c2c1nc(Oc1cccc(Cl)c1)n2Cc1ccc(Cl)cc1` [HC-070] was tested, and the immobility time (CD-1 mice; 0.3, 1 or 3 mg/kg PO, 60 min prior, CD-1 mice) was “reduced the immobility time; also recorded: significantly decreased”, the IC50 (CD-1 mice; Mus musculus, read-out: IC50 of immobility versus average plasma exposure (PK-PD)) was 58 nM and the “calculated free brain concentration corresponding to PK-PD IC50” value (CD-1 mice; male, CD-1 and C57BL/6, mouse, in vivo) was 0.16 nM. It also gave an inhibition at 1 µM (α1A (h); read-out: % Inhibition 1st) of -6.1%, an inhibition at 1 µM (α1A (h); read-out: % Inhibition 2nd) of 3.1% and an inhibition at 1 µM (α1A (h); read-out: % Inhibition Mean) of -1.5%.

From article PMC5791972 (PLoS ONE, 2018)
